Here are results for 25 molecules from ChEMBL document CHEMBL5352486, “Design, synthesis, in vitro - In vivo biological evaluation of novel thiazolopyrimidine compounds as antileishmanial agent with PTR1 inhibition” (Eur J Med Chem, 2023).

SMILES strings stand for the structures. In brackets after ≈: the same amount, converted by molar mass.

Data set [1] deals with Leishmania infantum. Put plainly: Antileishmanial activity against Leishmania infantum MHOM/TN/1980/IPT1 incubated for 48 hrs by Neubauer hemocytometer analysis. The data set is classed as functional, organism-based. Particulars: MHOM/TN/1980/IPT1, 48 h.
The subject of data set [2] is Leishmania tropica. In words: Antileishmanial activity against Leishmania tropica MHOM/A7/1974/SAF-K27 incubated for 48 hrs by Neubauer hemocytometer analysis. The data set is classed as functional, organism-based. Particulars: MHOM/A7/1974/SAF-K27, 48 h.
The subject of data set [3] is Leishmania tropica. Put plainly: Antileishmanial activity against Leishmania tropica MHOM/A7/1974/SAF-K27 incubated for 48 hrs by XTT method. The class given is functional, organism-based. Particulars: MHOM/A7/1974/SAF-K27, 48 h. Background: Formazan colour is commonly taken as a measure of viable cells.
In data set [4] the test system is Leishmania infantum. In words: Antileishmanial activity against Leishmania infantum MHOM/TN/1980/IPT1 incubated for 48 hrs by XTT method. The class given is functional, organism-based. Particulars: MHOM/TN/1980/IPT1, 48 h.
Data set [5] relates to DHFR (human) versus PTR1 (Leishmania major). In words: Selectivity index, ratio of IC50 for human DHFR to IC50 for Leishmania major PTR1. Particulars: human DHFR enzyme and Leishmania major PTR1 enzyme, read-out: Ratio IC50. The class given is toxicity.
The test system of a further data set is RAW264.7. Put plainly: (§1) Cytotoxicity against mouse RAW264.7 cells by alamar blue method. Particulars: raw264.7. The data set is classed as toxicity, cell-based. In general terms: Resazurin is reduced to fluorescent resorufin, in cell work by metabolically active cells.
Data set [6] can be described thus: as §1. The data set is classed as toxicity, cell-based. Particulars: mouse, RAW264.7 cells.
Another data set has as its system L929. Put plainly: (§2) Cytotoxicity against mouse L929 cells by alamar blue method. The class given is toxicity, cell-based. Particulars: l929.
A short description of data set [7]: as §2. The class given is toxicity, cell-based. Particulars: mouse, L929 cells.
For a further data set, the target named is T1, Pteridine reductase 1 (Leishmania major, UniProt Q01782).
T1 sequence (Q01782 whole entry): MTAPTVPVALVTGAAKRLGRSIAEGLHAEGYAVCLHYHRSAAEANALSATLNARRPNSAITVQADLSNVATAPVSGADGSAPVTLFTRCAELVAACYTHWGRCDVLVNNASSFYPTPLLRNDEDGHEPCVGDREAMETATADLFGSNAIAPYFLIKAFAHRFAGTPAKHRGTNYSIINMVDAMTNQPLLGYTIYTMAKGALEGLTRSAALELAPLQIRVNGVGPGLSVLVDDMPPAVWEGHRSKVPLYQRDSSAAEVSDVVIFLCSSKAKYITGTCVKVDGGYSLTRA
In words: Inhibition of recombinant Leishmania major PTR1 expressed in Escherichia coli BL21 using folic acid as substrate in presence of NADPH.

For `O=C(Nc1nc2cnc(N3CCCC3)nc2s1)c1ccc(Cl)cc1`, the IC50 (as a rule, the concentration that inhibits the measured activity by half) with Leishmania infantum [1] was found to be 114 µg/mL (≈ 315 µM); in the data set with Leishmania tropica [2] it was 137 µg/mL (≈ 380 µM); in the data set with Leishmania tropica [3] it was 141 µg/mL (≈ 392 µM); in the data set with Leishmania infantum [4], 117 µg/mL (≈ 326 µM).
For the molecule `CN(C)c1ncc2nc(NC(=O)c3ccc(Cl)cc3Cl)sc2n1`, the IC50 in the data set on Leishmania infantum [1] was 84.1 µg/mL (≈ 228 µM); with Leishmania tropica [2], 86.6 µg/mL (≈ 235 µM); in the data set with Leishmania tropica [3] it was 86.2 µg/mL (≈ 234 µM); with Leishmania infantum [4], 81.1 µg/mL (≈ 220 µM).
For `CC(=O)N1CCN(c2ncc3nc(NC(=O)c4ccc(Cl)cc4Cl)sc3n2)CC1`, in that order: 77.7 µg/mL (≈ 172 µM), 75 µg/mL (≈ 166 µM), 75.8 µg/mL (≈ 168 µM) and 78.6 µg/mL (≈ 174 µM).
Consider `CCN(CC)c1ncc2nc(NC(=O)c3ccc(Cl)cc3Cl)sc2n1`, for which the IC50 in the data set with Leishmania infantum [1] is 123 µg/mL (≈ 310 µM); in the data set with Leishmania tropica [2] it was 120 µg/mL (≈ 303 µM); in the data set on Leishmania tropica [3], 125 µg/mL (≈ 315 µM); in the data set with Leishmania infantum [4] it was 124 µg/mL (≈ 312 µM).
As to `CC(=O)N1CCN(c2ncc3nc(NC(=O)c4ccc(Cl)c([N+](=O)[O-])c4)sc3n2)CC1`, the IC50 turned out to be 35.5 µg/mL (≈ 76.8 µM) with Leishmania infantum [1], 34.4 µg/mL (≈ 74.4 µM) in the data set with Leishmania tropica [2], 35.3 µg/mL (≈ 76.3 µM) in the data set with Leishmania tropica [3] and 36.1 µg/mL (≈ 78.1 µM) in the data set on Leishmania infantum [4].
Take `CC(=O)N1CCN(c2ncc3nc(NC(=O)c4ccc(Cl)c(Cl)c4)sc3n2)CC1`: the IC50 in the data set on Leishmania infantum [1] came to 126 µg/mL (≈ 279 µM); in the data set with Leishmania tropica [2] it was 147 µg/mL (≈ 326 µM); with Leishmania tropica [3], 149 µg/mL (≈ 331 µM); in the data set with Leishmania infantum [4], 127 µg/mL (≈ 282 µM).
With `O=C(Nc1nc2cnc(N3CCOCC3)nc2s1)c1ccc(Cl)c(Cl)c1`, the 50% inhibitory concentration (IC50) turned out to be 44.1 µg/mL (≈ 108 µM) in the data set on Leishmania infantum [1], 40.3 µg/mL (≈ 98.2 µM) in the data set with Leishmania tropica [2], 41.4 µg/mL (≈ 101 µM) in the data set with Leishmania tropica [3] and 44.6 µg/mL (≈ 109 µM) in the data set with Leishmania infantum [4].
Turning to `O=C(Nc1nc2cnc(Cl)nc2s1)c1ccc(Cl)c(Cl)c1`, the 50% inhibitory concentration (IC50) amounted to 14.1 µg/mL (≈ 39.3 µM) in the data set on Leishmania infantum [1], 14.8 µg/mL (≈ 41.1 µM) in the data set on Leishmania tropica [2], 15.1 µg/mL (≈ 41.9 µM) in the data set on Leishmania tropica [3] and 14.4 µg/mL (≈ 40 µM) in the data set on Leishmania infantum [4].
As to `O=C(Nc1nc2cnc(N3CCOCC3)nc2s1)c1ccc(Cl)cc1Cl`, the IC50 in the data set with Leishmania infantum [1] was determined as 91.1 µg/mL (≈ 222 µM); in the data set with Leishmania tropica [2], 90.3 µg/mL (≈ 220 µM); in the data set with Leishmania tropica [3], 90.6 µg/mL (≈ 221 µM); in the data set with Leishmania infantum [4], 90.9 µg/mL (≈ 222 µM).
Consider `CCOC(=O)N1CCN(c2ncc3nc(NC(=O)c4ccc(Cl)cc4Cl)sc3n2)CC1`, for which the IC50 in the data set with Leishmania infantum [1], with Leishmania tropica [2], with Leishmania tropica [3] and with Leishmania infantum [4] was above 300 µg/mL in each case.
On to `O=C(Nc1nc2cnc(Cl)nc2s1)c1ccc(Cl)c([N+](=O)[O-])c1`, for which the half-inhibitory concentration (IC50) with Leishmania infantum [1] came out at 30.5 µg/mL (≈ 82.4 µM); in the data set with Leishmania tropica [2], 30.6 µg/mL (≈ 82.7 µM); in the data set with Leishmania tropica [3] it was 30.7 µg/mL (≈ 82.9 µM); in the data set with Leishmania infantum [4] it was 30.6 µg/mL (≈ 82.6 µM).
Turning to `O=C(Nc1nc2cnc(N3CCCC3)nc2s1)c1ccc(Cl)c(Cl)c1`, the 50% inhibitory concentration (IC50) in the data set with Leishmania infantum [1], in the data set with Leishmania tropica [2], in the data set with Leishmania tropica [3] and with Leishmania infantum [4] was above 300 µg/mL in each case.
Take `CC(=O)N1CCN(c2ncc3nc(NC(=O)c4ccc(Cl)cc4)sc3n2)CC1`: the IC50 with Leishmania infantum [1], in the data set on Leishmania tropica [2], in the data set with Leishmania tropica [3] and in the data set with Leishmania infantum [4] was above 300 µg/mL in each case.
For the molecule `O=C(Nc1nc2cnc(N3CCOCC3)nc2s1)c1ccc(Cl)cc1`, the 50% inhibitory concentration (IC50) in the data set with Leishmania infantum [1], in the data set on Leishmania tropica [2], with Leishmania tropica [3] and in the data set on Leishmania infantum [4] was above 300 µg/mL throughout.
Consider `CN(C)c1ncc2nc(NC(=O)c3ccc(Cl)cc3)sc2n1`, for which the IC50 with Leishmania infantum [1], with Leishmania tropica [2], in the data set on Leishmania tropica [3] and with Leishmania infantum [4] was above 300 µg/mL throughout.
For the molecule `O=C(Nc1nc2cnc(N3CCCC3)nc2s1)c1ccc(Cl)cc1Cl`, the 50% inhibitory concentration (IC50) with Leishmania infantum [1] is 52.4 µg/mL (≈ 133 µM); with Leishmania tropica [2], 51.2 µg/mL (≈ 130 µM); with Leishmania tropica [3] it was 52 µg/mL (≈ 132 µM); in the data set with Leishmania infantum [4], 52.6 µg/mL (≈ 133 µM).
For the molecule `CN1CCN(c2ncc3nc(NC(=O)c4ccc(Cl)c([N+](=O)[O-])c4)sc3n2)CC1`, the IC50 is 58.8 µg/mL (≈ 135 µM) in the data set on Leishmania infantum [1], 51.5 µg/mL (≈ 119 µM) with Leishmania tropica [2], 53.8 µg/mL (≈ 124 µM) with Leishmania tropica [3] and 60.4 µg/mL (≈ 139 µM) in the data set with Leishmania infantum [4].
Take `O=C(Nc1nc2cnc(N3CCCCC3)nc2s1)c1ccc(Cl)cc1Cl`: the half-inhibitory concentration (IC50) with Leishmania infantum [1] turned out to be 16.8 µg/mL (≈ 41.1 µM); in the data set on Leishmania tropica [2], 16.3 µg/mL (≈ 39.9 µM); in the data set on Leishmania tropica [3] it was 16.3 µg/mL (≈ 39.8 µM); with Leishmania infantum [4], 16.8 µg/mL (≈ 41.1 µM).
Turning to `CCN(CC)c1ncc2nc(NC(=O)c3ccc(Cl)c([N+](=O)[O-])c3)sc2n1`, in data set [5], the selectivity ratio turned out to be 12.6. The IC50 with Leishmania infantum [1] was 15.1 µg/mL (≈ 37.2 µM); in data set [6] it was 4.47 µg/mL (≈ 11 µM); in data set [7] it was 19.1 µg/mL (≈ 46.8 µM); with Leishmania tropica [2], 15.8 µg/mL (≈ 38.7 µM); with Leishmania tropica [3] it was 15.6 µg/mL (≈ 38.2 µM); at Pteridine reductase 1, 254 µM. Besides, the IC50 in the data set on Leishmania infantum [4] turned out to be 15.3 µg/mL (≈ 37.6 µM). The “log10 IC50 (µg/mL)” value in the data set on RAW264.7 is 0.65; in the data set with L929 it was 1.28.
On to `O=C(Nc1nc2cnc(N3CCCCC3)nc2s1)c1ccc(Cl)cc1`, for which the IC50 with Leishmania infantum [1] was 119 µg/mL (≈ 317 µM); in the data set on Leishmania tropica [2], 116 µg/mL (≈ 310 µM); in the data set with Leishmania tropica [3], 122 µg/mL (≈ 327 µM); in the data set with Leishmania infantum [4] it was 121 µg/mL (≈ 324 µM).
For `O=C(Nc1nc2cnc(N3CCCCC3)nc2s1)c1ccc(Cl)c([N+](=O)[O-])c1`, the half-maximal inhibitory concentration (IC50) with Leishmania infantum [1] is 64 µg/mL (≈ 153 µM); with Leishmania tropica [2], 56.8 µg/mL (≈ 136 µM); in the data set on Leishmania tropica [3], 56.7 µg/mL (≈ 135 µM); with Leishmania infantum [4], 63.5 µg/mL (≈ 152 µM).
Consider `CN(C)c1ncc2nc(NC(=O)c3ccc(Cl)c(Cl)c3)sc2n1`, for which the IC50 in the data set with Leishmania infantum [1] was determined as 112 µg/mL (≈ 304 µM); in the data set on Leishmania tropica [2], 116 µg/mL (≈ 315 µM); in the data set on Leishmania tropica [3], 119 µg/mL (≈ 322 µM); with Leishmania infantum [4], 114 µg/mL (≈ 310 µM).
In the case of `CCN(CC)c1ncc2nc(NC(=O)c3ccc(Cl)cc3)sc2n1`, the half-inhibitory concentration (IC50) in the data set on Leishmania infantum [1] amounted to 191 µg/mL (≈ 528 µM); in the data set with Leishmania tropica [2], 186 µg/mL (≈ 515 µM); in the data set on Leishmania tropica [3], 188 µg/mL (≈ 520 µM); in the data set with Leishmania infantum [4], 189 µg/mL (≈ 523 µM).
As to `CCOC(=O)N1CCN(c2ncc3nc(NC(=O)c4ccc(Cl)cc4)sc3n2)CC1`, the concentration for half-maximal inhibition (IC50) was 52.4 µg/mL (≈ 117 µM) with Leishmania infantum [1], 53.9 µg/mL (≈ 121 µM) in the data set on Leishmania tropica [2], 54.1 µg/mL (≈ 121 µM) with Leishmania tropica [3] and 53.5 µg/mL (≈ 120 µM) with Leishmania infantum [4].
Regarding `O=C(Nc1nc2cnc(N3CCCCC3)nc2s1)c1ccc(Cl)c(Cl)c1`, the IC50 with Leishmania infantum [1] worked out at 25.7 µg/mL (≈ 63 µM); in the data set with Leishmania tropica [2], 25.1 µg/mL (≈ 61.6 µM); with Leishmania tropica [3], 25.5 µg/mL (≈ 62.4 µM); in the data set on Leishmania infantum [4], 25.8 µg/mL (≈ 63.2 µM).
